Measurements taken from ChEMBL document CHEMBL3991601, “The target landscape of clinical kinase drugs” (Science, 2017).
Where a name gives a salt, the structure may show the parent alone. Calls of active or inactive are those of the source. On the calls: in the data inactive means no Kd found up to 30 µM.

Experiments:
[1] = molecular target: T1, Cyclin-dependent kinase-like 5 (Homo sapiens, UniProt O76039)
T1 sequence (O76039 whole entry): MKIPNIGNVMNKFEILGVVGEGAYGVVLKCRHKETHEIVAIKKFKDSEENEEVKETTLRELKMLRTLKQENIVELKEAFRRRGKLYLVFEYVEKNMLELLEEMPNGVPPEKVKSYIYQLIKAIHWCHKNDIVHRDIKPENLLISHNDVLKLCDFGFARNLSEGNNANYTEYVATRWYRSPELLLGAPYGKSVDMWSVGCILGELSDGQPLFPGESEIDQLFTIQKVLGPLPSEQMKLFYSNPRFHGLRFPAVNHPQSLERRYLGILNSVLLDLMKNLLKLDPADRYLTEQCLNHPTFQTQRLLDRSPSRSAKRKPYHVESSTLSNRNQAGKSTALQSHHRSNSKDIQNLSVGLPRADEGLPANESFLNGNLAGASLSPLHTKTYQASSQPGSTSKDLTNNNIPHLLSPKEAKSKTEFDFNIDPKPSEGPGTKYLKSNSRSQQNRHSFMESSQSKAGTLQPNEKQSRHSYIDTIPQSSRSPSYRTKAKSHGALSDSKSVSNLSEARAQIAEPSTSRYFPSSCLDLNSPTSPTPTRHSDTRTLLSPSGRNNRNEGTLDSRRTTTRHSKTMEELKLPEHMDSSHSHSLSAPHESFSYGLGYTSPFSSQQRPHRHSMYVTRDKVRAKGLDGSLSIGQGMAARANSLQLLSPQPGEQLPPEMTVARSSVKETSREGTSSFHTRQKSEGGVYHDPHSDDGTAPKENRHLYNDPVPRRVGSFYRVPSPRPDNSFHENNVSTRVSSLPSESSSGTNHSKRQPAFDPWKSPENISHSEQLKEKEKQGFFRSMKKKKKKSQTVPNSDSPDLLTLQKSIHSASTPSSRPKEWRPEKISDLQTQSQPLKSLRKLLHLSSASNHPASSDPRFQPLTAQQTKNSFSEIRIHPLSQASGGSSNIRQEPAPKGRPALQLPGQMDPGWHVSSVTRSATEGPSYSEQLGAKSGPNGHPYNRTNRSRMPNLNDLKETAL

Misshapen-like kinase 1 = Misshapen-like kinase 1 (Homo sapiens, UniProt Q8N4C8)
[2] = molecular target: T2, Protein kinase C zeta type (Homo sapiens, UniProt Q05513)
T2 sequence (Q05513 whole entry): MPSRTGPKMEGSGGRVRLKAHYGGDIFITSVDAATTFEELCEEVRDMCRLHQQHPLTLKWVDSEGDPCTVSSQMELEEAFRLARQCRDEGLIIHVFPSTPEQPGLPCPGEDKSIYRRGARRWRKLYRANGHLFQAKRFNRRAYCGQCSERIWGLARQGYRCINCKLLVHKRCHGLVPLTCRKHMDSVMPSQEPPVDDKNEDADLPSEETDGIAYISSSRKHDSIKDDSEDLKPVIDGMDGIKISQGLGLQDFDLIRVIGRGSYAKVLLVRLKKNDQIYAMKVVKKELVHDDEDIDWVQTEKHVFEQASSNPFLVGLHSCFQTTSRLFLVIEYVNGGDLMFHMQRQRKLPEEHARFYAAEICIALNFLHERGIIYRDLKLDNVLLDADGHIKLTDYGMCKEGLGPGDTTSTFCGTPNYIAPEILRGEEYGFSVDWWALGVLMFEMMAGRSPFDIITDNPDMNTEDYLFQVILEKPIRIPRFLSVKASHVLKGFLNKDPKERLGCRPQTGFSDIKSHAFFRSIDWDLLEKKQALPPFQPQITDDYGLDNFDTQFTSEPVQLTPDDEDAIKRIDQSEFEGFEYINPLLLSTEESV

[3] = molecular target: Serine/threonine-protein kinase 24 (Homo sapiens, UniProt Q9Y6E0)
[4] = molecular target: T3, Dual specificity protein kinase TTK (Homo sapiens, UniProt P33981)
T3 sequence (P33981 whole entry): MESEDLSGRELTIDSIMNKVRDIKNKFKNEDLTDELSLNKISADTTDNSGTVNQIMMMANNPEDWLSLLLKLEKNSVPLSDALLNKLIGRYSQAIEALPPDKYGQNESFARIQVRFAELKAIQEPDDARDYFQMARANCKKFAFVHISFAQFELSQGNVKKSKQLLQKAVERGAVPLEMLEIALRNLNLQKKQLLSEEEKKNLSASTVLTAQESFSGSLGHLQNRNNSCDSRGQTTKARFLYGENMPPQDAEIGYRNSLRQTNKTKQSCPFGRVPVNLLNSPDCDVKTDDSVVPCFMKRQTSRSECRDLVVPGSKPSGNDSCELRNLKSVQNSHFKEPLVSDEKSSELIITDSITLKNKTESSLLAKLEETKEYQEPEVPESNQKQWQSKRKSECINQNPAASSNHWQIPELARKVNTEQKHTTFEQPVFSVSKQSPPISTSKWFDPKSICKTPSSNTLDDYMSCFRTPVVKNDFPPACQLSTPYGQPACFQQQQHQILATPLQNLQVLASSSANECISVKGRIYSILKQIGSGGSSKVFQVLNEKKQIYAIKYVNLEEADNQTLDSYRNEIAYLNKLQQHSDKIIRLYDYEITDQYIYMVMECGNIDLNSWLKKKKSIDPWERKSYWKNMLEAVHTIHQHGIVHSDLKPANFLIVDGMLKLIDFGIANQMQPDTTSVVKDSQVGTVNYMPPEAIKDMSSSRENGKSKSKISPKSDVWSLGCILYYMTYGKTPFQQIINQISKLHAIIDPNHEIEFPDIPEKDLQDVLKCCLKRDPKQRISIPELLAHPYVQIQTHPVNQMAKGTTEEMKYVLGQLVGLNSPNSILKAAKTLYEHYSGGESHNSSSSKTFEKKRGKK

[5] = molecular target: Serine/threonine-protein kinase ATR (Homo sapiens, UniProt Q13535)
[6] = molecular target: Dual specificity protein kinase CLK4 (Homo sapiens, UniProt Q9HAZ1)
[7] = molecular target: Serine/threonine-protein kinase N3 (Homo sapiens, UniProt Q6P5Z2)
Serine/threonine-protein kinase N3, sequence (Q6P5Z2 whole entry): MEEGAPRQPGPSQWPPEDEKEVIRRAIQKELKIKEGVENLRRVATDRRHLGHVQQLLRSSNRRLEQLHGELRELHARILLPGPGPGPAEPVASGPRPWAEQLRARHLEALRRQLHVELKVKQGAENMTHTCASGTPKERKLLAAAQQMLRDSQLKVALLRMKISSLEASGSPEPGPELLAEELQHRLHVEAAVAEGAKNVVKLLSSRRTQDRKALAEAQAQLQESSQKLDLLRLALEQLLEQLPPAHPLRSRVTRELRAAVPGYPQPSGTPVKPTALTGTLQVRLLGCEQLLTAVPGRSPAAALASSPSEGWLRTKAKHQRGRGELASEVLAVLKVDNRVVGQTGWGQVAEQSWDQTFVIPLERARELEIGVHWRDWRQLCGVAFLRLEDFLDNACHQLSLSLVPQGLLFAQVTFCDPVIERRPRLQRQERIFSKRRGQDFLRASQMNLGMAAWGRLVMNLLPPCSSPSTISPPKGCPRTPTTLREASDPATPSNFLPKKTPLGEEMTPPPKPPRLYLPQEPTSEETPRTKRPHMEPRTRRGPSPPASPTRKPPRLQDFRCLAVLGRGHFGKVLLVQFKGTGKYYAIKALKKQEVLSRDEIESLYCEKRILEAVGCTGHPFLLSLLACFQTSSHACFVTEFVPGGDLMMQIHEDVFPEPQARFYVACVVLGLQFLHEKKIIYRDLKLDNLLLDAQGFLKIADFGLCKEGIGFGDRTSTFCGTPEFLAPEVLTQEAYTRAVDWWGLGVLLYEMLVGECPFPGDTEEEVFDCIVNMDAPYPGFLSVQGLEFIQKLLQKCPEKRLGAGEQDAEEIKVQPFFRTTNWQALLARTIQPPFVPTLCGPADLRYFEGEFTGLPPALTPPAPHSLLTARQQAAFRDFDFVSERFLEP

Misshapen-like kinase 1, sequence (Q8N4C8 whole entry): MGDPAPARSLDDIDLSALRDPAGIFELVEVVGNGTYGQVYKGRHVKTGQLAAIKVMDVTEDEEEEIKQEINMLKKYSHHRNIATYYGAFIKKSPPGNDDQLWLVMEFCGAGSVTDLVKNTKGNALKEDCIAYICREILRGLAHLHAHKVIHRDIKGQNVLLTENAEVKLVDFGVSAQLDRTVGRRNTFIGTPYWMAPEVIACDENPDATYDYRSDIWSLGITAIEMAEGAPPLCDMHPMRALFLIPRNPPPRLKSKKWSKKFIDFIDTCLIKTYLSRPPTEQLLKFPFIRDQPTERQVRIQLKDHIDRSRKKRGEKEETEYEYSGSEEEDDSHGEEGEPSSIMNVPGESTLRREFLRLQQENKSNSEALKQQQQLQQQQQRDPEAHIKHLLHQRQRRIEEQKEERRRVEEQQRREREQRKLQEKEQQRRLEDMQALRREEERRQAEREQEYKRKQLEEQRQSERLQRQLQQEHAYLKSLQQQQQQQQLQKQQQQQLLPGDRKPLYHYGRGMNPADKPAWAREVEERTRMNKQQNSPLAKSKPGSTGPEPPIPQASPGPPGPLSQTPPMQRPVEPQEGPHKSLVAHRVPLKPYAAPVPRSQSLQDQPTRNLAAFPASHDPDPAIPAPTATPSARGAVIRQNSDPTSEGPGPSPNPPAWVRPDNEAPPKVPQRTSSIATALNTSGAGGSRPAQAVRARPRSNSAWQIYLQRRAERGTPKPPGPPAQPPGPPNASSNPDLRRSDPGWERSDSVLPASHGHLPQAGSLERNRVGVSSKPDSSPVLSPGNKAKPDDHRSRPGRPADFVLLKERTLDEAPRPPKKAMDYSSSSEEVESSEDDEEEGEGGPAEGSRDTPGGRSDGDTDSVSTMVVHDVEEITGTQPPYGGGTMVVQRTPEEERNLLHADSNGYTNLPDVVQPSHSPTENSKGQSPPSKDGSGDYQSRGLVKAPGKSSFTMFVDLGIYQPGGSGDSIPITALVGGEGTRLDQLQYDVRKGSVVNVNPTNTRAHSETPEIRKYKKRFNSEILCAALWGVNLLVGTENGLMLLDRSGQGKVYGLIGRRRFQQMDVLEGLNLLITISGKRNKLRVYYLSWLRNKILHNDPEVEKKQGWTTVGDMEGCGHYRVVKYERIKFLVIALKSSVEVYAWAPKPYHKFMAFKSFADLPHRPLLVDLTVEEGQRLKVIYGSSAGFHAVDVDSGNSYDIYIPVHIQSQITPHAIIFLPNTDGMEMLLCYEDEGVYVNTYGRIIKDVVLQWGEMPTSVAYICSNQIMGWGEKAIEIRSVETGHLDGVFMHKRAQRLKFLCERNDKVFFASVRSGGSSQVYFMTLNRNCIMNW
Serine/threonine-protein kinase ATR, sequence (Q13535 whole entry): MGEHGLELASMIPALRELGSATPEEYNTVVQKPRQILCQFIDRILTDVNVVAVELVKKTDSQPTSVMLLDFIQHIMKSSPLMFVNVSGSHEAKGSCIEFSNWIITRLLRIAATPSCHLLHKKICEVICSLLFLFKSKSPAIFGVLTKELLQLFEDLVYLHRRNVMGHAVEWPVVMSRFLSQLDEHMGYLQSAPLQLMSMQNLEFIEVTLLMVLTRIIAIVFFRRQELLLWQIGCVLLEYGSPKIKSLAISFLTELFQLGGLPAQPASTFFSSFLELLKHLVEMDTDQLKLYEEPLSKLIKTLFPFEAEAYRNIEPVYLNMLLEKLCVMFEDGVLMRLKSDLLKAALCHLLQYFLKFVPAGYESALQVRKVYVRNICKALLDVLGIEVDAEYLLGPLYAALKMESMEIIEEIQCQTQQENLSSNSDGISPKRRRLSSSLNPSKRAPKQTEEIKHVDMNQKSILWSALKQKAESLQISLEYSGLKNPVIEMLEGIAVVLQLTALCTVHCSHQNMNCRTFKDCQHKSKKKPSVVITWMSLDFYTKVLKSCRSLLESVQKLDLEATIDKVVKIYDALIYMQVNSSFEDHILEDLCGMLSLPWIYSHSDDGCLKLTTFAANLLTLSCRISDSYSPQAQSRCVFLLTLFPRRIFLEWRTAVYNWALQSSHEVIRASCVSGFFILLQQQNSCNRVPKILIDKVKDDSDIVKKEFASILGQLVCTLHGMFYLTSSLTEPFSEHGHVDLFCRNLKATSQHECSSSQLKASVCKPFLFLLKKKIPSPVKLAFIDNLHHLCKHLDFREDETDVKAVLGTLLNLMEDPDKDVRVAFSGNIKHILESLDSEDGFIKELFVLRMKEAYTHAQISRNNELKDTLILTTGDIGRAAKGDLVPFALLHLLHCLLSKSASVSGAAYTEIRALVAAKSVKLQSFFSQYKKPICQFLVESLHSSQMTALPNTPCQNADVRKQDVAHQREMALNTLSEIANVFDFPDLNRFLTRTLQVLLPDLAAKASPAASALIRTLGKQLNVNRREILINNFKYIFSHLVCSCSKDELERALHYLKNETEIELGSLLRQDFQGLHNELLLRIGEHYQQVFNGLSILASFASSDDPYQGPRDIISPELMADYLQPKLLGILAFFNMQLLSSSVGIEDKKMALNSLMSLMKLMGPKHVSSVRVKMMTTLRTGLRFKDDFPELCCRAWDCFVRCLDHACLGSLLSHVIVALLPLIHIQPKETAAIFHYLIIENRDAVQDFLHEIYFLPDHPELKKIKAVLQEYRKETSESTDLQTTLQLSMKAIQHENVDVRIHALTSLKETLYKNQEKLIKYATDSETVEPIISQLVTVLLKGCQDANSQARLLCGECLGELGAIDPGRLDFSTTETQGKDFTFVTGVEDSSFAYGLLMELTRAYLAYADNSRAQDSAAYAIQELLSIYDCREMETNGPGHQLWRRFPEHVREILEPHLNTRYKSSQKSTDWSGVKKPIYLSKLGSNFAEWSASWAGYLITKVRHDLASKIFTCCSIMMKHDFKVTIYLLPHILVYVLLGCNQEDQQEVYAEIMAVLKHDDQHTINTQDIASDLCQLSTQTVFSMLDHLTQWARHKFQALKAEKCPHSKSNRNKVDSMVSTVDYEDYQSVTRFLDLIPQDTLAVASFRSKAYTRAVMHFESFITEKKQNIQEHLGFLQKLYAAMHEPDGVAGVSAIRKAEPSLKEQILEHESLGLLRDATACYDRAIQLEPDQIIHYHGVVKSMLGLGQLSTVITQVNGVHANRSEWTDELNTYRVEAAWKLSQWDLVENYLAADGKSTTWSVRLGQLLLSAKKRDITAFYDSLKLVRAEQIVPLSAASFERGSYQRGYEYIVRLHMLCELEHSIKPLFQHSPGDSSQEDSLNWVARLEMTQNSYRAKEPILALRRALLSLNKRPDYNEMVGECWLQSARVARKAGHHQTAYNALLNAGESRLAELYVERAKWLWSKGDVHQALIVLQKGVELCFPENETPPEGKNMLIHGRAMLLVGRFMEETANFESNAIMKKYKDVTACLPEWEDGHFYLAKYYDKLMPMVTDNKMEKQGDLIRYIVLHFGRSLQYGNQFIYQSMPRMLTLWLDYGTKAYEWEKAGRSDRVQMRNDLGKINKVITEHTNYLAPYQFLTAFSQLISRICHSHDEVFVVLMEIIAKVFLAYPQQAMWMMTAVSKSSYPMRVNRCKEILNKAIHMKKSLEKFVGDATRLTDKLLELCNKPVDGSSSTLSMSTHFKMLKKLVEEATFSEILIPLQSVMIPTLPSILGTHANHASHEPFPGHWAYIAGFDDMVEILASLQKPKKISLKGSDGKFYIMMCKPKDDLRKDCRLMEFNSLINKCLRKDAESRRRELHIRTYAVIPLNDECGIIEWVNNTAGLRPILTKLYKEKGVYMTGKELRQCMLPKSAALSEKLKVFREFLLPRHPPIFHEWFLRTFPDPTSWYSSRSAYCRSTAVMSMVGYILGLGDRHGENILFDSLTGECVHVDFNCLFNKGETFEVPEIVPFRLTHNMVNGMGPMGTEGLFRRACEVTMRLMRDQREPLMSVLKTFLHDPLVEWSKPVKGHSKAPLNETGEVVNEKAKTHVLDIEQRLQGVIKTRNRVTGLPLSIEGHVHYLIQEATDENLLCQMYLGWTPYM

Structure (SMILES)	Kd [1]	Kd (Misshapen-like kinase 1)	Kd [2]	Kd [3]	Kd [4]	Kd [5]	Kd [6]	Kd [7]
C[C@H]1CNCCCN1S(=O)(=O)c1cccc2cncc(F)c12	> 30 µM (inactive)	> 30 µM (inactive)	> 30 µM (inactive)	> 30 µM (inactive)	> 30 µM (inactive)			
CCNC(=O)C#Cc1ccc2c(c1)NC(=O)/C2=C(\Nc1ccc(CN(C)C)cc1)c1ccccc1	0.02 µM (active)	> 30 µM (inactive)	> 30 µM (inactive)	> 30 µM (inactive)		> 30 µM (inactive)		
COc1cc2ncnc(Oc3cccc(NC(=O)Nc4cc(C(C)(C)C(F)(F)F)on4)c3)c2cc1OC [CEP-32496]		> 30 µM (inactive)	> 30 µM (inactive)	> 30 µM (inactive)	> 30 µM (inactive)		> 30 µM (inactive)	> 30 µM (inactive)
Cc1cc(Nc2ncc(Cl)c(Nc3ccccc3S(=O)(=O)C(C)C)n2)c(OC(C)C)cc1C1CCNCC1 [CERITINIB]	> 30 µM (inactive)	> 30 µM (inactive)	> 30 µM (inactive)		> 30 µM (inactive)	> 30 µM (inactive)		> 30 µM (inactive)
C#Cc1cccc(Nc2ncnc3cc(OC)c(OCCCCCCC(=O)NO)cc23)c1 [CUDC-101]	> 30 µM (inactive)	> 30 µM (inactive)	> 30 µM (inactive)		> 30 µM (inactive)		> 30 µM (inactive)	> 30 µM (inactive)
CCS(=O)(=O)N1CCN(c2ccc(Nc3ncc(C(N)=O)c(NC4CC4)n3)cc2)CC1 [Cerdulatinib Hydrochloride]	> 30 µM (inactive)	> 30 µM (inactive)	> 30 µM (inactive)			> 30 µM (inactive)	> 30 µM (inactive)	
CC(C)(C)c1nc(-c2cccc(NS(=O)(=O)c3c(F)cccc3F)c2F)c(-c2ccnc(N)n2)s1 [DABRAFENIB]	> 30 µM (inactive)	> 30 µM (inactive)	> 30 µM (inactive)	> 30 µM (inactive)	> 30 µM (inactive)		> 30 µM (inactive)	> 30 µM (inactive)
CNC(=O)c1nn(C)c2c1C(C)(C)Cc1cnc(Nc3ccc(N4CCN(C)CC4)cc3)nc1-2 [MILCICLIB]	> 30 µM (inactive)	> 30 µM (inactive)	> 30 µM (inactive)	> 30 µM (inactive)	> 30 µM (inactive)	> 30 µM (inactive)	0.018 µM (active)	> 30 µM (inactive)
COc1ncc(-c2ccc3nccc(-c4ccnnc4)c3c2)cc1NS(=O)(=O)c1ccc(F)cc1F [OMIPALISIB]		> 30 µM (inactive)	> 30 µM (inactive)	> 30 µM (inactive)	> 30 µM (inactive)	> 30 µM (inactive)	> 30 µM (inactive)	
Cc1nc(Nc2n[nH]c3c2CN(C(=O)N[C@H](CN(C)C)c2ccccc2)C3(C)C)c2sccc2n1 [PF-03758309]	1.93 µM (active)	> 30 µM (inactive)	> 30 µM (inactive)			> 30 µM (inactive)	0.013 µM (active)	> 30 µM (inactive)
CNC(=O)c1cc(Oc2ccc(NC(=O)Nc3cc(C(C)(C)C)nn3-c3ccc4ncccc4c3)c(F)c2)ccn1 [REBASTINIB]		> 30 µM (inactive)	> 30 µM (inactive)		> 30 µM (inactive)		2.53 µM	> 30 µM (inactive)
O=c1[nH]ccc2cc(OC3CCNCC3)ccc12 [SAR-407899 FREE BASE]	> 30 µM (inactive)	> 30 µM (inactive)	> 30 µM (inactive)	> 30 µM (inactive)		> 30 µM (inactive)	> 30 µM (inactive)	
Cn1cc(-c2cnn3c(N)c(Br)c([C@@H]4CCCNC4)nc23)cn1 [SCH-900776]	> 30 µM (inactive)	> 30 µM (inactive)	> 30 µM (inactive)				> 30 µM (inactive)	
CO[C@H]1C[C@@H]2CC[C@@H](C)[C@@](O)(O2)C(=O)C(=O)N2CCCC[C@H]2C(=O)O[C@H]([C@H](C)C[C@@H]2CC[C@@H](O)[C@H](OC)C2)CC(=O)[C@H](C)/C=C(\C)[C@@H](O)[C@@H](OC)C(=O)[C@H](C)C[C@H](C)/C=C/C=C/C=C/1C [SIROLIMUS]	> 30 µM (inactive)	> 30 µM (inactive)	> 30 µM (inactive)	> 30 µM (inactive)	> 30 µM (inactive)		> 30 µM (inactive)	> 30 µM (inactive)
CO[C@H]1C[C@@H]2CC[C@@H](C)[C@@](O)(O2)C(=O)C(=O)N2CCCC[C@H]2C(=O)O[C@H]([C@H](C)C[C@@H]2CC[C@@H](OC(=O)C(C)(CO)CO)[C@H](OC)C2)CC(=O)[C@H](C)/C=C(\C)[C@@H](O)[C@@H](OC)C(=O)[C@H](C)C[C@H](C)/C=C/C=C/C=C/1C [TEMSIROLIMUS]	> 30 µM (inactive)	> 30 µM (inactive)	> 30 µM (inactive)	> 30 µM (inactive)	> 30 µM (inactive)	> 30 µM (inactive)	> 30 µM (inactive)	> 30 µM (inactive)
C[C@@H](NC(=O)c1ncnc(N)c1Cl)c1ncc(C(=O)Nc2cc(C(F)(F)F)c(Cl)cn2)s1 [TOVORAFENIB]	> 30 µM (inactive)	> 30 µM (inactive)	> 30 µM (inactive)	> 30 µM (inactive)	> 30 µM (inactive)	> 30 µM (inactive)	> 30 µM (inactive)	> 30 µM (inactive)
Cc1cc(Nc2ncnc3ccc(NC4=NC(C)(C)CO4)cc23)ccc1Oc1ccn2ncnc2c1 [TUCATINIB]	> 30 µM (inactive)	> 30 µM (inactive)	> 30 µM (inactive)	> 30 µM (inactive)			> 30 µM (inactive)	> 30 µM (inactive)
